21 compounds from US7342014B2, “Diamine derivatives” (Daiichi Pharmaceutical Co., Ltd., priority 2001, dated 2008) can be followed below.

Where a name gives a salt, the structure may show the parent alone.

T1 sequence (P00742 235-488 limits assumed): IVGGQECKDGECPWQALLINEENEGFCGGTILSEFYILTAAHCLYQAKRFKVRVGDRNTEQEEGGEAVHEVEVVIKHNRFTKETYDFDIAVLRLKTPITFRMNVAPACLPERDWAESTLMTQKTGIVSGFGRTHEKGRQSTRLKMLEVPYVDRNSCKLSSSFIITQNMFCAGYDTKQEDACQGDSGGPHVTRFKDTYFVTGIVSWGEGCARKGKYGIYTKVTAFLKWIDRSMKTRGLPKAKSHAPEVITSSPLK
T1 sequence (P00742 41-179 partner limits assumed): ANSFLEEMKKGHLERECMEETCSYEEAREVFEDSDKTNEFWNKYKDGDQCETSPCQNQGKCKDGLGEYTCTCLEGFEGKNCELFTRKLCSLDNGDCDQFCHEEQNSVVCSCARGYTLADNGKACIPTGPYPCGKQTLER

The first data set addresses T1, human FXa (Homo sapiens, UniProt P00742).
T1 construct: purchased Enzyme Research Labolatories, Inc
The data set is described as follows: Determination of human FXa-inhibiting effect (IC50 value). The format is biochemical.
Conditions: not given
From the text: Determination of Human FXa-inhibiting Effect (IC50 Value)
As a control, Tris buffer was used in place of the test compound.
The term IC50 denotes the concentration that inhibits the measured activity by half. The compound `CN1CCc2nc(C(=O)N[C@H]3CCC[C@@H]3NC(=O)c3cc4cc(Cl)ccc4[nH]3)sc2C1` (relative stereo) [Example 3, N-((1R*,2R*)-2-{[(5-Chloroindol-2-yl)carbonyl]amino}-cyclopentyl)-5-methyl-4,5,6,7-tetrahydrothiazolo[5,4-c]-pyridine-2-carboxamide hydrochloride] yielded an IC50 of 86 nM.

The data set is the same for the next values; noted with them: human FXa, substrate S-2222, absorbance at 405 nm, room temperature; read-out: Human FXa-inhibiting effect (IC50).
For `CN1CCc2nc(C(=O)N[C@@H]3C[C@@H](C(=O)N(C)C)CC[C@@H]3NC(=O)C(=O)Nc3ccc(Br)cn3)sc2C1` [Example 204, N^1-(5-Bromopyridin-2-yl)-N^2-((1S,2R,4S)-4-[(dimethylamino)-carbonyl]-2-{[(5-methyl-4,5,6,7-tetrahydrothiazolo[5,4-c]-pyridin-2-yl)carbonyl]amino}cyclohexyl)ethanediamide hydrochloride], the IC50 was 1.5 nM.
On the same count and under the same terms, the value for `CN1CCc2nc(C(=O)N[C@@H]3C[C@@H](C(=O)N(C)C)CC[C@@H]3NC(=S)C(=O)Nc3ccc(Cl)cn3)sc2C1` [Ex. 247, N-{(1R,2S,5S)-2-({2-[(5-Chloropyridin-2-yl)amino]-2-oxoethanethioyl}amino)-5-[(dimethylamino)carbonyl]-cyclohexyl}-5-methyl-4,5,6,7-tetrahydrothiazolo[5,4-c]-pyridine-2-carboxamide] was 1.9 nM; that for `CCNC(=O)[C@H]1CC[C@H](NC(=O)c2cc3cc(Cl)ccc3[nH]2)[C@H](NC(=O)c2nc3c(s2)CN(C)CC3)C1` [Example 62, N-{(1R,2S,5S)-2-{[(5-Chloroindol-2-yl)carbonyl]amino}-5-[(ethylamino)carbonyl]cyclohexyl}-5-methyl-4,5,6,7-tetrahydrothiazolo[5,4-c]pyridine-2-carboxamide hydrochloride] was 3.5 nM.
On to `COCC(=O)N1CC[C@H](NC(=O)c2cc3cc(Cl)ccc3[nH]2)[C@H](NC(=O)c2nc3c(s2)CN(C)CC3)C1` (relative stereo) [Example 143, N-[(3R*,4S*)-4-{[(5-Chloroindol-2-yl)carbonyl]amino}-1-(2-methoxyacetyl)piperidin-3-yl]-5-methyl-4,5,6,7-tetrahydro-thiazolo[5,4-c]pyridine-2-carboxamide hydrochloride], for which the IC50 is 5.8 nM.
On the same count and under the same terms, the value for `CN1CCc2nc(C(=O)N[C@@H]3C[C@@H](C(=O)N(C)C)CC[C@@H]3NC(=O)C(=S)Nc3ccc(Cl)cn3)sc2C1` [Ex. 248, N-{(1R,2S,5S)-2-({2-[(5-Chloropyridin-2-yl)amino]-2-thioxoacetyl}amino)-5-[(dimethylamino)carbonyl]-cyclohexyl}-5-methyl-4,5,6,7-tetrahydrothiazolo[5,4-c]-pyridine-2-carboxamide] was 5.4 nM; that for `CN1CCc2nc(C(=O)N[C@@H]3CN(S(=O)(=O)CC(=O)O)C[C@H]3NC(=O)c3cc4cc(Cl)ccc4[nH]3)sc2C1` [Example 101, 2-[((3R,4R)-3-{[(5-Chloroindol-2-yl)carbonyl]amino}-4-{[(5-methyl-4,5,6,7-tetrahydrothiazolo[5,4-c]pyridin-2-yl)carbonyl]amino}pyrrolidin-1-yl)sulfonyl]acetic acid] was 26 nM.
For the compound `CN1CCc2nc(C(=O)N[C@@H]3CN(C(=O)C4CC4)CC[C@@H]3NC(=O)c3cc4cc(Cl)ccc4[nH]3)sc2C1` (relative stereo) [Example 138, N-[(3R*,4S*)-4-{[(5-Chloroindol-2-yl)carbonyl]amino}-1-(cyclopropylcarbonyl)piperidin-3-yl]-5-methyl-4,5,6,7-tetrahydrothiazolo[5,4-c]pyridine-2-carboxamide hydrochloride], the IC50 stood at 4.4 nM.
Take `CN1CCc2nc(C(=O)N[C@@H]3CCCC[C@@H]3NC(=O)c3cc4cc(Br)ccc4[nH]3)sc2C1` (relative stereo) [Example 11, N-((1R*,2S*)-2-{[(5-Bromoindol-2-yl)carbonyl]amino}-cyclohexyl)-5-methyl-4,5,6,7-tetrahydrothiazolo[5,4-c]-pyridine-2-carboxamide hydrochloride]: the IC50 stood at 92 nM.
On the same count and under the same terms, the value for `CN1CCc2nc(C(=O)N[C@@H]3C[C@@H](C(=O)N(C)C)CC[C@@H]3NC(=S)C(=O)Nc3ccc(Cl)cc3)sc2C1` [Ex. 246, N-{(1R,2S,5S)-2-{[2-(4-Chloroanilino)-2-oxoethane-thioyl]amino}-5-[(dimethylamino)carbonyl]cyclohexyl}-5-methyl-4,5,6,7-tetrahydrothiazolo[5,4-c]pyridine-2-carboxamide] was 3.1 nM; that for `CN1CCc2nc(C(=O)N[C@@H]3C[C@@H](C(=O)N(C)C)CC[C@@H]3NC(=O)C(=O)Nc3ccc(F)cc3)sc2C1` [Example 194, N^1-((1S,2R,4S)-4-[(Dimethylamino)carbonyl]-2-{[(5-methyl-4,5,6,7-tetrahydrothiazolo[5,4-c]pyridin-2-yl)carbonyl]amino}cyclohexyl)-N^2-(4-fluorophenyl)-ethanediamide hydrochloride] was 5 nM; that for `CN1CCc2nc(C(=O)N[C@@H]3C[C@@H](C(=O)N(C)C)CC[C@@H]3NC(=O)C(=O)Nc3ccc(Cl)cc3)sc2C1` [Example 191, N^1-(4-Chlorophenyl)-N^2-((1S,2R,4S)-4-[(dimethylamino)-carbonyl]-2-{[(5-methyl-4,5,6,7-tetrahydrothiazolo[5,4-c]-pyridin-2-yl)carbonyl]amino}cyclohexyl)ethanediamide hydrochloride] was 1.2 nM.
Same read-out and setting: the value for `COC(=O)[C@@H]1CC[C@H](NC(=O)c2cc3cc(Cl)ccc3[nH]2)[C@H](NC(=O)c2nc3c(s2)CN(C)CC3)C1` [Example 54, Methyl (1R,3R,4S)-4-{[(5-chloroindol-2-yl)carbonyl]amino}-3-{[(5-methyl-4,5,6,7-tetrahydrothiazolo[5,4-c]pyridin-2-yl)carbonyl]amino}cyclohexanecarboxylate] was 4.2 nM; that for `CCOC(=O)N1CC[C@H](NC(=O)c2cc3cc(Cl)ccc3[nH]2)[C@H](NC(=O)c2nc3c(s2)CN(C)CC3)C1` (relative stereo) [Example 130, Ethyl (3R*,4S*)-4-{[(5-chloroindol-2-yl)carbonyl]amino}-3-{[(5-methyl-4,5,6,7-tetrahydrothiazolo[5,4-c]pyridin-2-yl)carbonyl]amino}piperidine-1-carboxylate hydrochloride] was 4.5 nM.
The same measure, in the same setting: the value for `CN1CCc2nc(C(=O)N[C@@H]3CCCC[C@@H]3NC(=O)c3ccc4cc(Cl)ccc4c3)sc2C1` (relative stereo) [Example 7, N-{(1R*,2S*)-2-[(6-Chloronaphthoyl)amino]cyclohexyl}-5-methyl-4,5,6,7-tetrahydrothiazolo[5,4-c]pyridine-2-carboxamide hydrochloride] was 83 nM; that for `CN1CCc2nc(C(=O)N[C@@H]3CN(C(=O)NC(C)(C)C)CC[C@@H]3NC(=O)c3cc4cc(Cl)ccc4[nH]3)sc2C1.Cl` (relative stereo) [Example 164, N-((3R*,4S*)-1-[(tert-Butylamino)carbonyl]-4-{[(5-chloroindol-2-yl)carbonyl]amino}piperidin-3-yl)-5-methyl-4,5,6,7-tetrahydrothiazolo[5,4-c]pyridine-2-carboxamide hydrochloride] was 4.8 nM.

Another data set deals with T1, human FXa. The data set is described as follows: Determination of anti-FXa activity in rat plasma after oral administration. The format is in vivo. To be noted: rats, oral dose of 10 mg/kg, plasma collected 0.5, 1, 2 and 4 hours after administration, human FXa and S-2222; read-out: FXa-inhibiting activity (percent inhibition) in plasma. On the procedure: Determination of Anti-FXa Activity in Rat Plasma After Oral Administration
(A) Administration and Blood Collection:
A drug solution (1 mg/ml) obtained by dissolving or suspending a test compound (10 mg) in 0.5% methyl cellulose (MC) was orally administered to rats (10 ml/kg). […] For rats of a control group, the same blood collection was conducted after a 0.5% MC solution was administered. Each blood sample was centrifuged at 1500×g for 10 minutes at 4° C. to separate plasma, and the plasma was preserved at −40° C. until it was used in the following determination of anti-FXa activity in plasma.
(B) Determination of FXa-inhibiting Activity in Plasma:
Tris buffer (100 mM Tris, 200 mM potassium chloride, 0.2% BSA, pH 7.4) (5456 μl), human FXa (2.5 U/ml, 44 μl) and water (550 μl) were mixed. The resultant human FXa solution was used in the following test.
The anti-FXa activity, i.e., percent inhibition (%) was calculated in accordance with the following equation: […]
One may read the inhibition as the change of the read-out against control, counted positive when it falls. As for `CN1CCc2nc(C(=O)N[C@@H]3C[C@@H](C(=O)N(C)C)CC[C@@H]3NC(=O)C(=O)Nc3ccc(Br)cn3)sc2C1` [Example 204, N^1-(5-Bromopyridin-2-yl)-N^2-((1S,2R,4S)-4-[(dimethylamino)-carbonyl]-2-{[(5-methyl-4,5,6,7-tetrahydrothiazolo[5,4-c]-pyridin-2-yl)carbonyl]amino}cyclohexyl)ethanediamide hydrochloride], the inhibition at 10 mg/kg lay within 62 to 96%.
As to `CN1CCc2nc(C(=O)N[C@@H]3C[C@@H](C(=O)N(C)C)CC[C@@H]3NC(=O)C(=O)Nc3ccc(F)cc3)sc2C1` [Example 194, N^1-((1S,2R,4S)-4-[(Dimethylamino)carbonyl]-2-{[(5-methyl-4,5,6,7-tetrahydrothiazolo[5,4-c]pyridin-2-yl)carbonyl]amino}cyclohexyl)-N^2-(4-fluorophenyl)-ethanediamide hydrochloride], the inhibition at 10 mg/kg was in the range of 62 to 96%.
On the same count and under the same terms, the value for `CN1CCc2nc(C(=O)N[C@@H]3C[C@@H](C(=O)N(C)C)CC[C@@H]3NC(=O)C(=O)Nc3ccc(Cl)cc3)sc2C1` [Example 191, N^1-(4-Chlorophenyl)-N^2-((1S,2R,4S)-4-[(dimethylamino)-carbonyl]-2-{[(5-methyl-4,5,6,7-tetrahydrothiazolo[5,4-c]-pyridin-2-yl)carbonyl]amino}cyclohexyl)ethanediamide hydrochloride] was 62 to 96%.

Test system in the next data set: not given
Test: not given
Conditions: not given
For orientation: melting point means the temperature, or range, at which the solid turns liquid. Turning to `COCC(=O)N1CC[C@H](NC(=O)c2cc3cc(Cl)ccc3[nH]2)[C@H](NC(=O)c2nc3c(s2)CN(C)CC3)C1` (as salt: hydrochloride) [Example 171, N-[(3R,4S)-4-{[(5-Chloroindol-2-yl)carbonyl]amino}-1-(2-methoxyacetyl)piperidin-3-yl]-5-methyl-4,5,6,7-tetrahydro-thiazolo[5,4-c]pyridine-2-carboxamide hydrochloride], the melting point is 207 to 220 °C (dec.).
In the case of `CN1CCc2nc(C(=O)N[C@@H]3CN(CCF)CC[C@@H]3NC(=O)c3cc4cc(Cl)ccc4[nH]3)sc2C1` (relative stereo) (as salt: hydrochloride) [Example 168, N-[(3R*,4S*)-4-{[(5-Chloroindol-2-yl)carbonyl]amino}-1-(2-fluoroethyl)piperidin-3-yl]-5-methyl-4,5,6,7-tetrahydro-thiazolo[5,4-c]pyridine-2-carboxamide dihydrochloride], the melting point was 228 to 233 °C (dec.).
The same measure, in the same setting: the value for `CN1CCc2nc(C(=O)N[C@@H]3CN(C(=O)C4CC(O)C4)CC[C@@H]3NC(=O)c3cc4cc(Cl)ccc4[nH]3)sc2C1` (relative stereo) (as salt: hydrochloride) was 200 °C (dec.); that for `CN1CCc2nc(C(=O)N[C@@H]3CNC[C@H]3NC(=O)c3cc4cc(Cl)ccc4[nH]3)sc2C1` (as salt: hydrochloride) was 248 to 250 °C (dec.); that for `CN1CCc2nc(C(=O)N[C@@H]3CN(C(=O)NC(C)(C)C)CC[C@@H]3NC(=O)c3cc4cc(Cl)ccc4[nH]3)sc2C1.Cl` (relative stereo) [Example 164, N-((3R*,4S*)-1-[(tert-Butylamino)carbonyl]-4-{[(5-chloroindol-2-yl)carbonyl]amino}piperidin-3-yl)-5-methyl-4,5,6,7-tetrahydrothiazolo[5,4-c]pyridine-2-carboxamide hydrochloride] was 236 to 238 °C (dec.).
Still for that read-out and setting: the value for `CCOC(=O)N1CC[C@H](NC(=O)c2cc3cc(Cl)ccc3[nH]2)[C@H](NC(=O)c2nc3c(s2)CN(C)CC3)C1` (relative stereo) (as salt: hydrochloride) [Example 130, Ethyl (3R*,4S*)-4-{[(5-chloroindol-2-yl)carbonyl]amino}-3-{[(5-methyl-4,5,6,7-tetrahydrothiazolo[5,4-c]pyridin-2-yl)carbonyl]amino}piperidine-1-carboxylate hydrochloride] was 215 to 225 °C (dec.).
